{
  "source": "patent US20130136753A1",
  "about": "“PAXILLIN AS A THERAPEUTIC OR DIAGNOSTIC MARKER FOR CANCER” (UNIVERSITY OF ROCHESTER, priority 2010, published 2013)",
  "key": {"[1]": {"tested_on": "PC3 cells", "assay": "MTT cell proliferation assay, PC3 cells", "type": "cell-based, human", "conditions": "100 nM PMA 24 hours, 20 μM U0126", "protocol": "PC3 or LnCAP cells were treated with non-targeting siRNA pool (ThermoFisher Scientific) or paxillin-specific siRNA according to manufacturer's instructions. Two sets of human paxillin siRNAs were used: 1) human paxillin siRNA (Santa Cruz Biotechnology) containing three target-specific 20-25 nucleotide siRNAs or 2) human paxillin siRNA ON-TARGET plus SMARTpoo1 (ThemoFisher Scientific) containing four siRNAs targeting the paxillin mRNA. The latter was used for all experiments described in the accompanying Examples, although results were similar with both pools. For experiments involving constitutively active (“CA”) Raf (William Walker, University of Pittsburgh) or MEK (Melanie Cobb, University of Texas Southwestern Medical Center), cells were co-transfected with paxillin or nonspecific siRNAs and cDNAs encoding caRaf or caMEK. After 72 hours, cells were treated overnight with serum-free, phenol red-free RPMI 1640 media and stimulated with 0.1% ethanol/DMSO (vehicle), 25 nM DHT (Steraloids), 20 ng/ml EGF (BD Biosciences), or 100 nM PMA (Sigma) for the times indicated for Western blots or 24 hours for MTT assays.\nMTT assays were performed using a colorimetric assay cell proliferation kit (Roche Applied Science) according to the manufacturer's instructions."}, "[2]": {"tested_on": "paxillin", "assay": "Western blot of paxillin phosphorylation in LnCAP cells", "type": "cell-based, human", "conditions": "20 μM U0126", "protocol": "LnCAP and PC3 cell lines were obtained from ATCC and cultured in RPMI 1640 medium (Invitrogen) containing 10% FBS and 1% penicillin-streptomycin. For experiments involving pharmacological inhibitors, cells were treated overnight with serum-free, phenol red-free RPMI 1640 media. Thereafter, cells were treated with vehicle (0.1% DMSO) or inhibitors Galardin, PP2, AG1478 (Calbiochem), flutamide, or erlotinib (Sigma) for 30 minutes before stimulation with 0.1% ethanol (vehicle) or 25 nM DHT for 30 minutes.\nWestern blots were performed as described (Evaul and Hammes, “Cross-Talk Between G Protein-Coupled and Epidermal Growth Factor Receptors Regulates Gonadotropin-Mediated Steroidogenesis in Leydig Cells,” J. Biol. Chem. 283(41):27525-27533 (2008), which is hereby incorporated by reference in its entirety). Primary antibodies were: paxillin, paxillinphospho-Tyr118, paxillin-phospho-Tyr31, Akt1/2/3, Akt1/2/3 phospho-Ser473, EGFR at 1:1000 dilution, and EGFR phospho-Tyr845 (1:500) (Santa Cruz Biotechnology); paxillin phospho-Ser126 (Invitrogen); paxillin phospho-Ser83 (ECM Biosciences); p44/42-Erk1/2, phospho-p44/42-Erk1/2 (Thr202/[…]), phospho-Ser217/221-MEK1/2, src, src-phospho-Tyr416 (Cell Signaling Technology) at 1:1000 dilutions and f3-actin (1:5000, Millipore)."}, "[3]": {"tested_on": "paxillin", "assay": "Western blot of paxillin phosphorylation in PC3 cells", "type": "cell-based, human", "conditions": "20 μM U0126", "protocol": "FIGS. 8A-D illustrate that PMA-mediated Erk1/2 activation is paxillin-independent, but PMA-mediated proliferation still requires serine phosphorylation of paxillin. In FIG. 8A, paxillin (Pax) or non-targeting (Nsp) siRNA-treated LnCAP cells were serum-starved and treated with PMA (100 nM) or EGF (20 ng/ml) for 30 minutes. Western blots were performed for paxillin and total and phosphorylated Erk1/2. In FIG. 8B, serum-starved PC3 cells were pretreated with 0.1% DMSO or 20 μM U0126 ([…]) for 30 minutes before stimulation with PMA (100 nM) or EGF (20 ng/ml) for another 30 minutes. Thereafter, levels of paxillin and phosphorylated paxillin at tyrosine-118 (Pax p-Y118) and serine-126 (Pax p-S126) were detected by Western blot. In FIG. 8C, cell proliferation (MTT assay) of PC3 cells treated (24 hours) with 0.1% DMSO (M) or 100 nM PMA in the presence or absence of 20 μM U0126. In FIG. 8D, PC3 cells were initially transfected with Paxillin (Pax) or non-targeting (Nsp) siRNA. After 96 hours, media were removed, and cells were then either mock-transfected or transfected with wild-type paxillin (left panel) or paxillin mutated at tyrosines 31/118 (Y31A/Y118A, middle panel) or serines 83/126/130 (S83A/S126A/S130A, right panel). […] Cell proliferation was detected by MTT. […]"}, "[4]": {"tested_on": "PSA mRNA", "assay": "PSA mRNA expression by real time PCR in LnCAP cells", "type": "cell-based, human", "conditions": "20 μM U0126 or 20 μM AG1478 30 minutes before 25 nM DHT 24 hours", "protocol": "RNA was isolated with the RNeasy mini kit (Qiagen) according to manufacturer's instructions. Levels of Kallikrein-related peptidase-3 (KLK3, or prostate-specific antigen (“PSA”)), paxillin, cyclin D1, and GAPDH expression were analyzed by the A/A-Ct method using Taqman gene expression assay primers (assay ID# Hs99999905_ml-GAPDH, Hs02576345_ml-KLK3, Hs99999004_ml-CCND1, and Hs01104424-ml-PXN; Applied Biosystems) on an ABI StepOne plus real-time PCR machine."}, "[5]": {"tested_on": "ovarian clear cell carcinoma cell line TOV-21G", "conditions": "cited from earlier work"}, "[6]": {"tested_on": "HER-2 overexpressing breast cancer cells", "conditions": "cited from earlier work"}},
  "data": [
    {"molecule": "N#CC(=C(/N)Sc1ccccc1N)/C(C#N)=C(\\N)Sc1ccccc1N", "note": "[U0126]", "values": [
      {"measurement": "PMA-induced proliferation of PC3 cells", "setting": "[1]", "result": "blocked"},
      {"measurement": "DHT-induced phosphorylation of paxillin at serines 83/126", "setting": "[2]", "result": "blocked"},
      {"measurement": "PMA-induced serine phosphorylation of paxillin", "setting": "[3]", "result": "blocked"},
      {"measurement": "DHT-induced expression of PSA mRNA", "setting": "[4]", "result": "abrogated"}
    ]},
    {"molecule": "Aptamer aptTOV1: aptamer binding ovarian clear cell carcinoma cell line TOV-21G (nucleic acid, listed as RNA, chemistry not given here) UCCAGAGUGACGCAGCAGAUCUGUGUAGGAUCGCAGUGUAGUGGACAUUUGAUACGACUGGCUCGACACGGUGGCUUA", "values": [
      {"measurement": "binding to TOV-21G cells", "setting": "[5]", "result": "high affinity"}
    ]},
    {"molecule": "Aptamer S6: RNA aptamer binding HER-2 overexpressing breast cancer cells (nucleic acid, listed as RNA, chemistry not given here) GGGAGAUACCAGCUUAUUCAAUUUGGAUGGGGAGAUCCGUUGAGUAAGCGGGCGUGUCUCUCUGCCGCCUUGCUAUGGGGAGAUAGUAAGUGCAAUCU", "values": [
      {"measurement": "binding to HER-2 overexpressing breast cancer cells", "setting": "[6]", "result": "binds specifically"}
    ]}
  ]
}
